Laboratory results reported in US6127372A, “Sulfonamide inhibitors of aspartyl protease” (Vertex Pharmaceuticals, Incorporated, priority 1996, dated 2000).

Biological target: HIV-1 protease (Human immunodeficiency virus type 1 group M subtype B, UniProt P04585)
Test: Inhibition constants against HIV-1 protease, method of Pennington et al.
Assay type: biochemical
Settings: not given

| SMILES | Ki [nM] |
| --- | --- |
| COc1ccc(S(=O)(=O)N(CC2CCCC2)C[C@@H](O)CN(CCc2ccccc2)C(=O)Oc2ccccc2)cc1 [Compound 1022] | 170 |

Same assay, conditions: HIV-1 protease; method of Pennington et al.; read-out: Ki

| SMILES | Ki [nM] |
| --- | --- |
| COc1ccc(S(=O)(=O)N(CC(C)C)CC(O)CNc2ccccc2C(=O)NC(C)(C)C)cc1 (stereo not drawn) [Compound 1002] | 16000 |
| COc1ccc(S(=O)(=O)N(CC2CCCC2)C[C@@H](O)CN(CCC(C)C)C(=O)O[C@H]2CCOC2)cc1 [Compound 1003] | 1200 |
| COc1ccc(S(=O)(=O)N(CC2CCCC2)C[C@@H](O)CN(CC(C)C)C(=O)O[C@H]2CCOC2)cc1 [Compound 1004] | 1300 |
| COc1ccc(S(=O)(=O)N(CC2CCCC2)C[C@@H](O)CN(CCCc2ccccc2)C(=O)O[C@H]2CCOC2)cc1 [Compound 1006] | 470 |
| COc1ccc(S(=O)(=O)N(CC2CCCC2)C[C@@H](O)CN(CCc2ccccc2)C(=O)OCc2ccccc2)cc1 [Compound 1019] | 20 |
| COc1ccc(S(=O)(=O)N(CC2CCCC2)C[C@@H](O)CN(CCc2cccnc2)C(=O)OCc2cccnc2)cc1 [Compound 1025] | 270 |
| COc1ccc(S(=O)(=O)N(CC2CCCC2)C[C@@H](O)CN(CCc2ccccc2)CC(=O)c2ccccc2)cc1 [Compound 1028] | 800 |
| CCCN(CC(=O)c1ccccc1)C[C@H](O)CN(CC1CCCC1)S(=O)(=O)c1ccc(OC)cc1 [Compound 1029] | 3500 |
| COc1ccc(S(=O)(=O)N(CC(C)C)C[C@@H](O)CC(=O)N2CCN(C(=O)OCc3ccccc3)C[C@H]2C(=O)NC(C)(C)C)cc1 [Compound 1031] | 1400 |
| COc1ccc(S(=O)(=O)N(CC(C)C)C[C@@H](O)CCN2CCCC[C@H]2C(=O)NC(C)(C)C)cc1 [Compound 1033] | 1600 |
| COc1ccc(S(=O)(=O)N(CC(C)C)C[C@@H](O)CCN(CC(C)C)S(=O)(=O)N(C)C)cc1 [Compound 1034] | 1100 |
| COc1ccc(S(=O)(=O)N(CCc2ccccc2)CC[C@H](O)CN(CC(C)C)S(=O)(=O)c2ccc(OC)cc2)cc1 [Compound 1035] | 3600 |
| COc1ccc(S(=O)(=O)N(CC(C)C)C[C@@H](O)CCN(CCc2ccccc2)C(=O)OC2COC3OCCC23)cc1 (stereo partly drawn) [Compound 1036] | 8000 |
| COc1ccc(S(=O)(=O)N(CC(C)C)C[C@@H](O)CCN(CCc2ccccc2)C(=O)O[C@H]2CCOC2)cc1 [Compound 1037] | > 10000 |
| COc1ccc(S(=O)(=O)N(CC(C)C)C[C@H](O)CCN(CCc2ccccc2)C(=O)O[C@H]2CCOC2)cc1 [Compound 1038] | > 10000 |
| COc1ccc(S(=O)(=O)N(CC(C)C)C[C@@H](O)CCN(CC2CCCC2)C(=O)O[C@H]2CCOC2)cc1 [Compound 1039] | > 3000 |
| COc1ccc(S(=O)(=O)N(CC(C)C)C[C@H](O)CCN(CC2CCCC2)C(=O)O[C@H]2CCOC2)cc1 [Compound 1040] | > 10000 |
| COc1ccc(S(=O)(=O)N(CC(C)C)C[C@@H](O)CCN(CC2CCCC2)S(=O)(=O)c2cccc(N)c2)cc1 [Compound 1041] | 270 |
| COc1ccc(S(=O)(=O)N(CC(O)CN2C(=O)OC[C@@H]2Cc2ccccc2)CC2CCCC2)cc1 (stereo partly drawn) [Compound 1046] | 1200 |
| COc1ccc(S(=O)(=O)N(CC2CCCC2)C[C@@H](O)CN(CCc2ccccc2)C(C)=O)cc1 [Compound 1047] | 1600 |
| COc1ccc(S(=O)(=O)N(CC(O)CN2CC(c3ccccc3)c3ccccc3C2=O)CC2CCCC2)cc1 (stereo not drawn) [Compound 1048] | 3300 |
| COc1ccc(S(=O)(=O)N(CC(C)C)C[C@@H](O)CC(Cc2ccccc2)C(=O)NCC(C)C)cc1 (stereo partly drawn) [LI] | 5000 |
| COc1ccc(S(=O)(=O)N(CC[C@H](O)CN2CCN(C(=O)OCc3ccccc3)C[C@H]2C(=O)NC(C)(C)C)CC(C)C)cc1 [LXXVI] | 2700 |
| COc1ccc(S(=O)(=O)N(CC[C@H](O)CN(CC(C)C)S(=O)(=O)c2ccc(OC)cc2)CC(C)C)cc1 [XLIVa] | 400 |
| COc1ccc(S(=O)(=O)N(CC[C@H](O)CN2CCCC[C@H]2C(=O)NC(C)(C)C)CC(C)C)cc1 [XLVIII] | 3300 |

More lines, now with the values ahead:

| Ki [nM] | SMILES |
| --- | --- |
| 100 | COc1ccc(S(=O)(=O)N(CC2CCCC2)C[C@H](O)CN(CCc2ccccc2)C(=O)O[C@H]2CCOC2)cc1 [Compound 1000] |
| 35 | O=C(O[C@H]1CCOC1)N(CCc1ccccc1)C[C@H](O)CN(CC1CCCC1)S(=O)(=O)c1ccc(O)cc1 [Compound 1007] |
| 260 | Nc1ccc(S(=O)(=O)N(CC2CCCC2)C[C@@H](O)CN(CCc2ccccc2)C(=O)O[C@H]2CCOC2)cc1 [Compound 1008] |
| 120 | Nc1cccc(S(=O)(=O)N(CC2CCCC2)C[C@@H](O)CN(CCc2ccccc2)C(=O)O[C@H]2CCOC2)c1 [Compound 1009] |
| 110 | COc1ccc(S(=O)(=O)N(CC2CCCC2)C[C@@H](O)CN(CCC2CCCCC2)C(=O)O[C@H]2CCOC2)cc1 [Compound 1011] |
| 200 | CC(C)CN(C[C@@H](O)CN(CCc1ccccc1)C(=O)O[C@H]1CCOC1)S(=O)(=O)c1cccc(N)c1 [Compound 1012] |
| 50 | Nc1cccc(S(=O)(=O)N(CC2CCCC2)C[C@@H](O)CN(CCc2ccccc2)C(=O)O[C@@H]2COC3OCCC32)c1 (stereo partly drawn) [Compound 1013] |
| 130 | Nc1cccc(S(=O)(=O)N(CC2CCCC2)C[C@@H](O)CN(CCc2ccccc2)C(=O)OC2COCOC2)c1 [Compound 1014] |
| 75 | COc1ccc(S(=O)(=O)N(CC2CCCC2)C[C@@H](O)CN(CCc2ccc(O)cc2)C(=O)O[C@H]2CCOC2)cc1 [Compound 1016] |
| 110 | COc1ccc(S(=O)(=O)N(CC2CCCC2)C[C@@H](O)CN(CCc2ccc(O)c(O)c2)C(=O)O[C@H]2CCOC2)cc1 [Compound 1017] |
| 170 | COc1ccc(S(=O)(=O)N(CC2CCCC2)C[C@@H](O)CN(CCc2ccccc2)C(=O)Cc2ccccc2)cc1 [Compound 1020] |
| 70 | C=CCOC(=O)N(CCc1ccccc1)C[C@H](O)CN(CC1CCCC1)S(=O)(=O)c1ccc(OC)cc1 [Compound 1021] |
| 52 | O=C(OCc1cccnc1)N(CCc1ccccc1)C[C@H](O)CN(CC1CCCC1)S(=O)(=O)c1ccccc1 [Compound 1023] |
| 66 | COc1ccc(S(=O)(=O)N(CC2CCCC2)C[C@@H](O)CN(CCc2ccccc2)C(=O)c2cccc(O)c2C)cc1 [Compound 1024] |
| 20 | COc1ccc(S(=O)(=O)N(CC2CCCC2)C[C@@H](O)CN(CCc2ccccc2)C(=O)c2ccccc2)cc1 [Compound 1026] |
| 7 | COc1ccc(S(=O)(=O)N(CC(O)CN(CCc2ccccc2)C(=O)[C@H](NC(=O)OCc2ccccc2)C(C)C)CC2CCCC2)cc1 (stereo partly drawn) [Compound 1027] |
| 220 | Nc1cccc(S(=O)(=O)N(CC2CCCC2)C[C@@H](O)CN(CCc2ccccc2)C(=O)c2cccnc2)c1 [Compound 1044] |
| 14 | Nc1cccc(S(=O)(=O)N(CC2CCCC2)C[C@@H](O)CN(CCc2ccccc2)C(=O)c2ccncc2)c1 [Compound 1045] |
| 11 | COc1ccc(S(=O)(=O)N(CC(C)C)C[C@@H](O)CC(Cc2ccccc2)C(=O)N[C@H]2c3ccccc3C[C@H]2O)cc1 (stereo partly drawn) [LII] |
| 167 | COc1ccc(S(=O)(=O)N(CC[C@H](O)CN(CC(C)C)S(=O)(=O)c2ccc(OC)cc2)CC2CCCC2)cc1 [LVa] |
| 160 | CC(C)CN(C[C@@H](O)CCN(CC1CCCC1)S(=O)(=O)c1ccc(O)cc1)S(=O)(=O)c1ccc(O)cc1 [XLV] |

Same assay, conditions: read-out: Ki

| Ki [nM] | SMILES |
| --- | --- |
| 30 | COc1ccc(S(=O)(=O)N(CC2CCCC2)C[C@@H](O)CN(CCc2ccccc2)C(=O)O[C@H]2CCOC2)cc1 [Compound 1001] |
